System: IL-2 production
Assay: Inhibition of IL-2 production in PHA-activated Jurkat cells (ELISA)
Format: cell-based
Conditions: Homo sapiens, PHA 2.5 μg/mL, 20 hours, IL-2 ELISA
Experimental: Jurkat cells were placed in a 96 well plate (0.5 million cells per well in 1% FBS medium) then a test compound of this invention was added at different concentrations. After 10 minutes, the cells were activated with PHA. (final concentration 2.5 μg/mL) and incubated for 20 hours at 37° C. under CO2. The final volume was 200 μL. Following incubation, the cells were centrifuged and the supernatants collected and stored at −70° C. prior to assaying for IL-2 production. A commercial ELISA kit (IL-2 Eli-pair, Diaclone Research, Besancon, France) was used to detect production of IL-2, from which dose response curves were obtained. The IC50 value was calculated as the concentration at which 50% of maximum IL-2 production after stimulation was inhibited versus a non-stimulation control.

| SMILES | IC50 |
| --- | --- |
| Cc1ccc(-c2ncco2)cc1-c1ccc(NS(=O)(=O)c2c(F)cccc2F)cc1 [Compound 1, 2,6-Difluoro-N-(2′-methyl-5′-oxazol-2-yl-biphenyl-4-yl)-benzenesulfonamide] | 50 to 500 nM |
| Cc1ccc(-c2cnco2)cc1-c1ccc(NC(=O)Nc2c(F)cccc2F)cc1 [Compound 4, 1-(2,6-Difluoro-phenyl)-3-(2′-methyl-5′-oxazol-5-yl-biphenyl-4-yl)-urea] | < 25 nM |
| Cc1ccc(-c2ncco2)cc1-c1ccc(NC(=O)Nc2ncncc2C)cc1 [Compound 74, 1-(2′-Methyl-5′-(oxazol-2-yl)biphenyl-4-yl)-3-(5-methylpyrimidin-4-yl)urea] | 25 to 50 nM |
| Cc1ccc(-c2ncco2)cc1-c1ccc(/N=C/c2c(F)cccc2F)cc1 [Compound 76, (E)-N-(2,6-difluorobenzylidene)-2′-methyl-5′-(oxazol-2-yl)biphenyl-4-amine] | 500 to 1000 nM |
| COC(=O)c1ccc(C)c(-c2ccc(NNC(=O)c3c(F)cccc3F)cc2)c1 [Compound 77, methyl 4′-(2-(2,6-difluorobenzoyl) hydrazinyl)-6-methylbiphenyl-3-carboxylate] | 50 to 500 nM |
